In the NIST ThermoML archive (doi:10.1016/j.jct.2012.05.014):

Assay: xn = mol fraction of the nth substance listed
Conditions: Fluid (supercritical or subcritical phases), Gravimetric method

CCCCCCCCNC(=O)C(=O)NCCCCCCCC [N1,N2-dioctyloxalamide] + O=C=O
Conditions | mass density [kg/m3]
313 K, 11700 kPa, x1 = 0.0001449 | 710.44
313 K, 12000 kPa, x1 = 0.0001679 | 719.38
313 K, 12500 kPa, x1 = 0.0002108 | 732.67
313 K, 13000 kPa, x1 = 0.00025 | 744.41
313 K, 13400 kPa, x1 = 0.000284 | 752.9
323 K, 12300 kPa, x1 = 0.0001146 | 604.62
323 K, 12900 kPa, x1 = 0.0001562 | 633.72
323 K, 13400 kPa, x1 = 0.000212 | 653.57
323 K, 13900 kPa, x1 = 0.0002628 | 670.57
323 K, 14400 kPa, x1 = 0.0003178 | 685.43
333 K, 12900 kPa, x1 = 9.49e-05 | 500.8
333 K, 13500 kPa, x1 = 0.0001511 | 537.09
333 K, 13900 kPa, x1 = 0.0002093 | 558.17
333 K, 14400 kPa, x1 = 0.0002622 | 581.45
333 K, 14800 kPa, x1 = 0.0003278 | 597.96
343 K, 13400 kPa, x1 = 9.77e-05 | 425.4
343 K, 13700 kPa, x1 = 0.0001344 | 441.9
343 K, 14000 kPa, x1 = 0.0001772 | 457.97
343 K, 14300 kPa, x1 = 0.0002091 | 473.49
343 K, 14600 kPa, x1 = 0.0002392 | 488.4
353 K, 13600 kPa, x1 = 0.0001134 | 366.46
353 K, 14000 kPa, x1 = 0.0001546 | 384.26
353 K, 14400 kPa, x1 = 0.0002019 | 402
353 K, 14700 kPa, x1 = 0.0002432 | 415.16
353 K, 15000 kPa, x1 = 0.0002821 | 428.15

CCCCNC(=O)C(=O)NCCCC [N,N'-dibutyloxalamide] + O=C=O
Conditions | mass density [kg/m3]
313 K, 9100 kPa, x1 = 0.0002628 | 517.19
313 K, 9300 kPa, x1 = 0.0005167 | 556.08
313 K, 9500 kPa, x1 = 0.0008035 | 584.52
313 K, 9700 kPa, x1 = 0.001136 | 606.4
313 K, 9800 kPa, x1 = 0.001295 | 615.65
323 K, 10300 kPa, x1 = 0.0001531 | 423.74
323 K, 10600 kPa, x1 = 0.0003084 | 460.74
323 K, 10900 kPa, x1 = 0.000518 | 495.1
323 K, 11100 kPa, x1 = 0.0007008 | 515.81
323 K, 11300 kPa, x1 = 0.000942 | 534.61
333 K, 11600 kPa, x1 = 0.0003355 | 405.21
333 K, 12000 kPa, x1 = 0.0005099 | 436.26
333 K, 12300 kPa, x1 = 0.0007204 | 458.89
333 K, 12500 kPa, x1 = 0.0009202 | 473.43
333 K, 12700 kPa, x1 = 0.001115 | 487.42
343 K, 12100 kPa, x1 = 0.0003508 | 352.31
343 K, 12500 kPa, x1 = 0.000503 | 374.67
343 K, 12800 kPa, x1 = 0.000639 | 391.64
343 K, 13000 kPa, x1 = 0.0007821 | 402.95
343 K, 13200 kPa, x1 = 0.0009026 | 414.22
353 K, 12600 kPa, x1 = 0.0003735 | 322.59
353 K, 13100 kPa, x1 = 0.0005294 | 344.33
353 K, 13500 kPa, x1 = 0.0006999 | 362.01
353 K, 13800 kPa, x1 = 0.0008396 | 375.36
353 K, 14000 kPa, x1 = 0.0009729 | 384.26

CCCCCCNC(=O)C(=O)NCCCCCC [N1,N2-dihexyloxalamide] + O=C=O
Conditions | mass density [kg/m3]
313 K, 9100 kPa, x1 = 0.000112 | 517.19
313 K, 9500 kPa, x1 = 0.0002518 | 584.52
313 K, 9800 kPa, x1 = 0.000392 | 615.65
313 K, 10100 kPa, x1 = 0.0005214 | 638.82
313 K, 10400 kPa, x1 = 0.0006463 | 657.22
323 K, 10700 kPa, x1 = 0.0001583 | 472.58
323 K, 11100 kPa, x1 = 0.0003041 | 515.81
323 K, 11400 kPa, x1 = 0.0004264 | 543.31
323 K, 11700 kPa, x1 = 0.0005407 | 566.85
323 K, 12000 kPa, x1 = 0.0006537 | 587.07
333 K, 11900 kPa, x1 = 0.0002196 | 428.55
333 K, 12300 kPa, x1 = 0.0003629 | 458.89
333 K, 12600 kPa, x1 = 0.0004822 | 480.5
333 K, 12900 kPa, x1 = 0.0006024 | 500.8
333 K, 13200 kPa, x1 = 0.0007245 | 519.67
343 K, 12500 kPa, x1 = 0.000277 | 374.67
343 K, 12900 kPa, x1 = 0.0003827 | 397.3
343 K, 13200 kPa, x1 = 0.0004661 | 414.22
343 K, 13500 kPa, x1 = 0.00056 | 430.94
343 K, 13700 kPa, x1 = 0.0006445 | 441.9
353 K, 12800 kPa, x1 = 0.0003133 | 331.22
353 K, 13300 kPa, x1 = 0.0004305 | 353.15
353 K, 13700 kPa, x1 = 0.0005336 | 370.9
353 K, 14000 kPa, x1 = 0.0006155 | 384.26
353 K, 14300 kPa, x1 = 0.0007224 | 397.58
